Measured values taken from ChEMBL document CHEMBL1201862, “PubChem BioAssay data set” (2004).
Calls of active or inactive are those of the source.

What was measured:
P388/ADR = experiment: cells; format: functional; settings: Mus musculus
SN12K1 = experiment: cells; format: functional; settings: Homo sapiens
P388 = experiment: cells; format: functional; settings: Mus musculus
[1] = biological target: T1, Sentrin-specific protease 1 (Homo sapiens, UniProt Q9P0U3); experiment: potency of human SENP1 inhibitors, dose response, biochemical, kinetic FRET (AID 651697); format: functional; settings: read-out: IC50_Mean
[2] = biological target: T1, Sentrin-specific protease 1; experiment: Dose response confirmation of small molecule inhibitors of the catalytic domain of the SUMO protease, SENP1 in a FRET assay.; format: functional; settings: read-out: IC50_Mean
Melanocortin receptor 4 = Melanocortin receptor 4 (Homo sapiens, UniProt P32245); format: functional, cell-based;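 further: Cell-based assay with luminescence read-out, confirmatory dose-response testing for agonist activity of biased ligands at MC4R; human U2OS cells with tagged receptor and beta-arrestin; potency of agonists that increase receptor coupling to beta-arrestin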
BJ [3] = experiment: cytotoxicity toward BJ-TERT fibroblasts, dose response, cell-based, RAS-independent, luminescence (AID 1933); format: functional; settings: Homo sapiens
BJ [4] = experiment: cells; format: functional, cell-based; settings: Homo sapiens
[5] = biological target: Luciferin 4-monooxygenase (Photinus pyralis, UniProt P08659); experiment: firefly luciferase enzyme inhibitors, dose response, biochemical, luminescence (AID 1891)
[6] = Luminescence Cell-Based Dose Confirmation HTS to Identify Inhibitors of Platelet Dense Granule Release. [Related pubchem assays: 1663 (Primary HTS), 1678 (Summary of Project)]; format: functional
BJ [7] = experiment: cytotoxicity toward BJ-TERT-LT-ST fibroblasts, dose response, cell-based, RAS-independent, luminescence (AID 1935); format: functional; settings: Homo sapiens;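 further: BJ fibroblasts immortalized with TERT plus LT and ST oncogenes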
[8] = cytotoxicity toward DRD oncogenic fibroblasts, dose response, cell-based, non-viral oncogenic, luminescence (AID 1934); format: functional; settings: Homo sapiens
[9] = biological target: Heat shock protein HSP 90-alpha (Homo sapiens, UniProt P07900); format: functional, organism-based
HSP90 = HSP90 (Plasmodium falciparum 3D7, UniProt Q8IL32); format: functional, organism-based
[10] = HEp-2 cell cytotoxicity, dose response, cytotoxicity control for RSV inhibitor project, HTS (AID 2410); format: functional; settings: human respiratory syncytial virus
[11] = biological target: T2, Carboxy-terminal domain RNA polymerase II polypeptide A small phosphatase 1 (Homo sapiens, UniProt Q9GZU7); experiment: inhibitors of CTDSP1, concentration-response testing, biochemical assay, absorbance-based, actives from ultra-high-throughput screening (AID 540297); format: functional
T2 sequence (Q9GZU7 whole entry): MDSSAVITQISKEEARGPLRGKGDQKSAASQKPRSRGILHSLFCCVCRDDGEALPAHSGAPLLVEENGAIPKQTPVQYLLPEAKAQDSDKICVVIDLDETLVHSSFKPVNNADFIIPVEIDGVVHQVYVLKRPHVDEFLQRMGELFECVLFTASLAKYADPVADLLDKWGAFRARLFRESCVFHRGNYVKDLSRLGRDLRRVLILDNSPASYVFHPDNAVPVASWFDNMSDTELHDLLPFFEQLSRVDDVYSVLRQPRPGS

[12] = biological target: Tyrosine-protein phosphatase non-receptor type 11 (Homo sapiens, UniProt Q06124); experiment: SHP2 phosphatase inhibition, dose response, selectivity assay for STEP inhibitor project, biochemical (AID 602367); format: functional; settings: read-out: IC50_Mean
[13] = biological target: Tyrosine-protein phosphatase non-receptor type 5 (Homo sapiens, UniProt P54829); experiment: STEP phosphatase inhibitors, confirmation, biochemical, fluorescence intensity, uHTS hits (AID 602372); format: functional; settings: read-out: IC50_Mean
[14] = biological target: Dual specificity protein phosphatase 3 (Homo sapiens, UniProt P51452); experiment: VHR phosphatase inhibition, dose response, selectivity assay for STEP inhibitor project, biochemical (AID 602374); format: functional; settings: read-out: IC50_Mean
[15] = biological target: T3, Small ubiquitin-related modifier 1 (Homo sapiens, UniProt P63165); experiment: inhibitors of SUMO1 peptide binding, dose response, biochemical, fluorescence polarization, uHTS hits (AID 624382); format: functional; settings: read-out: IC50_Mean
[16] = biological target: T3, Small ubiquitin-related modifier 1; experiment: inhibitors of SUMO1 partner interactions, dose response, biochemical, FRET (AID 624383); format: functional; settings: read-out: IC50_Mean

T1 sequence (Q9P0U3 whole entry, the tested form may be a part): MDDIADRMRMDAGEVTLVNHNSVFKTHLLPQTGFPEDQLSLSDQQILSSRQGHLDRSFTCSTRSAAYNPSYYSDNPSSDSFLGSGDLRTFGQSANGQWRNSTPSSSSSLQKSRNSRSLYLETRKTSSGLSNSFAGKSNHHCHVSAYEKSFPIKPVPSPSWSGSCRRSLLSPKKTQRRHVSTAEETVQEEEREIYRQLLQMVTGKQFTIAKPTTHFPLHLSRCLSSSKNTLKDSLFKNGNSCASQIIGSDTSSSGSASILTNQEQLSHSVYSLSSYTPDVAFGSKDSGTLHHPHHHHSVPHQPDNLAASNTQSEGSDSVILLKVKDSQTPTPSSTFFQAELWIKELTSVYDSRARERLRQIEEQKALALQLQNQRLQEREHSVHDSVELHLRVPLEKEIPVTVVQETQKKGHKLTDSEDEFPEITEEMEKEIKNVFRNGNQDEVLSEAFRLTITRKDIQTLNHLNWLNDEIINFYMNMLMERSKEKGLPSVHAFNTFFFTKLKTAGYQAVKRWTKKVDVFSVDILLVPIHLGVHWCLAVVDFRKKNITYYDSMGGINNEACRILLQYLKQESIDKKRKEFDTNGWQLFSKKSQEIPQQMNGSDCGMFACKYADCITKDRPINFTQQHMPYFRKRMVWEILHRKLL
T3 sequence (P63165 whole entry): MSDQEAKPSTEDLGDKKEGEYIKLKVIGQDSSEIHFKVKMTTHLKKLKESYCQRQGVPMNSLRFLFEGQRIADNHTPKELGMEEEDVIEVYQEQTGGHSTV
Chain of Tyrosine-protein phosphatase non-receptor type 5 (P54829 whole entry): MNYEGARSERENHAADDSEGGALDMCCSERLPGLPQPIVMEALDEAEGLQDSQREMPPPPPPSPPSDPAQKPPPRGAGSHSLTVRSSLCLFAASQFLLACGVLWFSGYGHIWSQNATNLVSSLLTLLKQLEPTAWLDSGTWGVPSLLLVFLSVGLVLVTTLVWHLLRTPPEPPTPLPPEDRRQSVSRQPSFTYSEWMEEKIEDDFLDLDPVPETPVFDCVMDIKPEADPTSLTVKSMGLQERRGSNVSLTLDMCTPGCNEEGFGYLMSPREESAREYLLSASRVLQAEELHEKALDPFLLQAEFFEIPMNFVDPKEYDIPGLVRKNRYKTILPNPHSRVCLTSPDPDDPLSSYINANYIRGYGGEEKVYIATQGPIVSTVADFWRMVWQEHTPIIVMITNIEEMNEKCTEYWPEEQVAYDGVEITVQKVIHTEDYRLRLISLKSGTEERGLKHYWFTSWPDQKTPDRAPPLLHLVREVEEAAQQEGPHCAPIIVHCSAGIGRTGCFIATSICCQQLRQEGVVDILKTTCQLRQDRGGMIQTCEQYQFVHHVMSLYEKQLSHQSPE
Chain of Luciferin 4-monooxygenase (P08659 whole entry): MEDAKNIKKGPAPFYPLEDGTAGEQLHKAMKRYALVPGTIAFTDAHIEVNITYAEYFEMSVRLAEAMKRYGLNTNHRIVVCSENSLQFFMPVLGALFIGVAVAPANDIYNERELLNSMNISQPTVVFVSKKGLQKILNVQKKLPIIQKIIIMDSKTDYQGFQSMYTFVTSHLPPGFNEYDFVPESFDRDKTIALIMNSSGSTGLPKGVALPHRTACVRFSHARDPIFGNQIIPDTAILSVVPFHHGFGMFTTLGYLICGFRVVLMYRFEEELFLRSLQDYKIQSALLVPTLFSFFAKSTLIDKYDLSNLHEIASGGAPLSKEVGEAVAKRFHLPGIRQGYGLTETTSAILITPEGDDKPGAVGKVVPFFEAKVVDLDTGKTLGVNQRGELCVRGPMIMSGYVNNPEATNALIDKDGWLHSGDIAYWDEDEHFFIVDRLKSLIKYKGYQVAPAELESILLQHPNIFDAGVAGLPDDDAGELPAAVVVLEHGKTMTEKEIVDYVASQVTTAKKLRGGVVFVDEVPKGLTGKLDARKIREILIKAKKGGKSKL
Chain of HSP90 (Q8IL32 whole entry): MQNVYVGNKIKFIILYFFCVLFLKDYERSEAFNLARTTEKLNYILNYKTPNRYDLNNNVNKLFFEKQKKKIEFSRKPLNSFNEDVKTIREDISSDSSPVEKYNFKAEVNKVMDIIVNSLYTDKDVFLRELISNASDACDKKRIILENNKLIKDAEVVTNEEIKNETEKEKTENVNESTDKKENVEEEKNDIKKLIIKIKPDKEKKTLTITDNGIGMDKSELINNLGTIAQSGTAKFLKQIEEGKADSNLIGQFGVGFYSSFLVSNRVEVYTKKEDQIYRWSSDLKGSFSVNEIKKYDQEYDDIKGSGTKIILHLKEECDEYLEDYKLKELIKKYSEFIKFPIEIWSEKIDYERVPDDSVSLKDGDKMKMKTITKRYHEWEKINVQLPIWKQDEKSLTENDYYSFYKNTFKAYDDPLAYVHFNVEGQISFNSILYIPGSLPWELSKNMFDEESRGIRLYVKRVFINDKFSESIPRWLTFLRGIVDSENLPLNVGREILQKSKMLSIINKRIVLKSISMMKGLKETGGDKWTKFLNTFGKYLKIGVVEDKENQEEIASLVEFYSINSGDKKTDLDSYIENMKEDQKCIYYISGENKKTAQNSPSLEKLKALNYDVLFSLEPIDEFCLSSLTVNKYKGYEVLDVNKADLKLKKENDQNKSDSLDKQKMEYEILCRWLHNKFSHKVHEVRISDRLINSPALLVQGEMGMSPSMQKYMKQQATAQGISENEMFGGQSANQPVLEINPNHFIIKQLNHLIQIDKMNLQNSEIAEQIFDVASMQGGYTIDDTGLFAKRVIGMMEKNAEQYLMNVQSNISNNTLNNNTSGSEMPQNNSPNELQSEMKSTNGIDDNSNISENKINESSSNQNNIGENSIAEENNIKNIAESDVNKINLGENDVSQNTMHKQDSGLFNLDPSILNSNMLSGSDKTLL
Chain of Dual specificity protein phosphatase 3 (P51452 whole entry): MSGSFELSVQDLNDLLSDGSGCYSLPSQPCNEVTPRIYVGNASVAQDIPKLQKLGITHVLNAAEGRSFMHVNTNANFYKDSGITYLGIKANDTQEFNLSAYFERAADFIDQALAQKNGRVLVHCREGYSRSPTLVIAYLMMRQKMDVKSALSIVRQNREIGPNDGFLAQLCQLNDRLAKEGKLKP
Chain of Melanocortin receptor 4 (P32245 whole entry): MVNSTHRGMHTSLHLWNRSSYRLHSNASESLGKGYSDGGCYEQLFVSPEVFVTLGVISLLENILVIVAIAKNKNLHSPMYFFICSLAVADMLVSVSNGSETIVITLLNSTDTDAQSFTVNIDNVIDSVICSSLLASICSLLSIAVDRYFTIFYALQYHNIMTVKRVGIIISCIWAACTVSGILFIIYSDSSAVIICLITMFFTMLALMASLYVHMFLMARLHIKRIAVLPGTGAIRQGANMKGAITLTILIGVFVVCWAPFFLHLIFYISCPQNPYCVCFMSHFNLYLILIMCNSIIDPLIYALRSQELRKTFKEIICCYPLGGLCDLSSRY
Chain of Tyrosine-protein phosphatase non-receptor type 11 (Q06124 whole entry): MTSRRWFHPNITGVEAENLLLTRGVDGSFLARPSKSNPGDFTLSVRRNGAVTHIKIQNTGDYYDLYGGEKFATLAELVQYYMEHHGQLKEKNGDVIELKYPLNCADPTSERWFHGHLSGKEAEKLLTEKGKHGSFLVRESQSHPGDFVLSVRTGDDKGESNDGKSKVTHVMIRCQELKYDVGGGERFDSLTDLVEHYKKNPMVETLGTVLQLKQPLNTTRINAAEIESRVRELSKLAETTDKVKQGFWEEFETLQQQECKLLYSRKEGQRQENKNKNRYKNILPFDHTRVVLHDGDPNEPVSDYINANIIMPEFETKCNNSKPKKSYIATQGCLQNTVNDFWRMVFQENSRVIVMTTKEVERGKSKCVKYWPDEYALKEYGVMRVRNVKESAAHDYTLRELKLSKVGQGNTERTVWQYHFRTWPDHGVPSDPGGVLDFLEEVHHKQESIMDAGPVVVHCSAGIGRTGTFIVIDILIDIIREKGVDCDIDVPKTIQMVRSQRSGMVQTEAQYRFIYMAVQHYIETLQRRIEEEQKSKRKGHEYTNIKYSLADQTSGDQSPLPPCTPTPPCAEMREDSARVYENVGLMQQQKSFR

For Nc1ncnc2c1ncn2C1CCC(CO)O1 (stereo unspecified), the GI50 (P388/ADR) was 69.5 µM (inactive), the GI50 (SN12K1) was > 62.4 µM (inactive) and the GI50 (P388) was 98.6 µM (inactive).
For CCn1c(/C=C/c2cc(Br)ccc2O)nc2ccccc2c1=O, the IC50 [1] was 12.5 µM (active) and the IC50 [2] was 5.9 µM (active).
For COc1ccc(-c2cnc3c(NC(C)=O)cc(-c4cc(F)ccc4OC)cn23)cc1OC, the EC50 (Melanocortin receptor 4) was > 89.2 µM (inactive).
For C(=C\c1nc2ccccc2[nH]1)/c1ccccc1, the EC50 (BJ [3]) was 6.89 µM (active), the EC50 (BJ [4]) was 8.19 µM (active) and the EC50 [5] was 0.949 µM (active). The EC50 [6] was 2.44 µM (active), the EC50 (BJ [7]) was > 150 µM (inconclusive) and the EC50 [8] was 6.84 µM (active). For the same compound, the AC50 [9] was 44 µM (active) and the AC50 (HSP90) was 106 µM (active).
For O=C1Nc2ccc3sc4ccccc4c3c2C1=O, the CC50 [10] was > 50 µM (active), the IC50 [11] was 4.35 µM (active) and the IC50 [12] was 3.25 µM (active). For the same compound, the IC50 [13] was 15.2 µM (active), the IC50 [14] was 2.49 µM (active) and the IC50 [15] was > 66.6 µM (inactive). The IC50 [16] was 8.19 µM (active).
